Data: PMC12040169 (PLOS Biology, 2025)

Assay: in vitro
Settings: human, hela cells, % viability

SMILES | viability at 28.5 h, 10 µM [%]
CN(C)C(=O)CN1CCC2(CC1)CN(S(C)(=O)=O)c1ccccc12 [CBK126686] | 97.7
COc1ccc(C2NC(C(=O)O)CS2)cc1CN1CCOCC1 (stereo not drawn) [CBK287132] | 87.4
FC(F)(F)c1cccc(-c2nccnc2NCc2cccs2)c1 [CBK037298] | 105
O=C(Cc1ccc(Cl)cc1)NC(=S)Nc1ccccc1[N+](=O)[O-] [CBK263909] | 95.4
O=C(Nc1ccc(OCc2ccccc2)cc1)OCC1CN(Cc2ccccc2)CCO1 (stereo not drawn) [CBK074792] | 102
CCn1c(COc2ccccc2Cl)nnc1SCC(=O)N1c2ccccc2Sc2ccccc21 [CBK265957] | 114
O=S(=O)(NCc1ccc(C(F)(F)F)cc1)c1cccs1 [CBK043744] | 94.5
O=C(NC1Cc2ccccc2C1)c1ccc2ncccc2c1 [CBK200354] | 96.2
O=C(NCC(c1ccccc1)c1c[nH]c2ccccc12)Nc1ccc(Cl)cc1 (stereo not drawn) [CBK269147] | 91.9
CNC(=O)C1(Cc2ccc(-c3cccc(C)c3)cc2)CCN(C(=O)CC(C)(C)C)CC1 [CBK285923] | 86.4
Cc1nnnn1-c1cc(NC(=O)NCC2CCCO2)ccc1F (stereo not drawn) [CBK305528] | 105
Cc1ccc2[nH]c3c(c2c1)CCNC31CCN(C(=O)CC(C)CC(=O)O)CC1 (stereo not drawn) [CBK047196] | 109
COc1ccc(Cl)cc1NC(=O)CN(C1CCCCC1)S(=O)(=O)c1ccccc1 [CBK265159] | 108
COc1cccc(-c2noc(C3CCN(CCc4ccccc4)CC3)n2)c1 [CBK051455] | 99.7
COc1ccccc1C(NC(=O)C1CCN(CCc2c[nH]c3ccccc23)CC1)c1ccccn1 (stereo not drawn) [CBK147923] | 87.8
Cc1ncc([N+](=O)[O-])n1CCOC(=O)NC(N1CCOCC1)C(Cl)(Cl)Cl (stereo not drawn) [CBK261299] | 103
OCCCNc1nccnc1-c1ccccc1Cl [CBK038092] | 81.6
CC(=O)Nc1ccc(S(=O)(=O)/N=C(\Nc2nc(C)cc(C)n2)Nc2ccccc2F)cc1 [CBK266134] | 106
O=C(CN1CCN(S(=O)(=O)N2CCCCC2)CC1)Nc1ccc(Br)cc1 [CBK269515] | 91.7
CC(C)NC(=O)[C@H]1CN(C(=O)c2cc[nH]n2)C[C@@H]1c1ccnc(N2CCCC2)n1 [CBK285526] | 89.3
Cc1nc(COC(=O)c2ccc(C#N)c(C)n2)cs1 [CBK297775] | 88.9
COCCn1c(=O)[nH]c2ncc(-c3ccsc3)nc21 [CBK064156] | 108

SMILES | viability at 28.5 h, 10 µM [%]
CCc1[nH]nc(O)c1Cc1c(Cl)cccc1Cl [CBK105304] | 115
COc1ccc(CN(Cc2ccccc2OC)[C@@H]2COC[C@H]2c2ccc(F)cc2)cc1 [CBK286484] | 105
O=C(Cn1cc(C(=O)NC2CCCCC2)ccc1=O)NCC1(c2ccccc2Cl)CC1 [CBK286101] | 86.4
O=C1NCC2(CCCN(Cc3ccc(F)cc3)C2)Oc2ccccc21 (stereo not drawn) [CBK284857] | 92.7
CCN(CC)Cc1cc([N+](=O)[O-])cc2c1OCOC2 [CBK296613] | 113
CC(NC(=O)N1CCC1)c1cccc(S(N)(=O)=O)c1 (stereo not drawn) [CBK306357] | 91.5
O=C(/C=C/c1ccc2c(c1)OCO2)Nc1ccc(S(=O)(=O)Nc2cnc3ccccc3n2)cc1 [CBK265445] | 86.9
Cc1c(Cl)cccc1NC(=O)CSc1nccn1C [CBK270297] | 91.5
Cc1cc(C(=O)NCCc2ccc(S(=O)(=O)NC(=O)NC3CCCCC3)cc2)n[nH]1 [CBK023997] | 99.1
COc1cncc(-c2cc(NCc3cc(OC)c(OC)c(OC)c3)ncn2)c1 [CBK091183] | 88.4
O=S1(=O)c2cc(/N=C/c3c(O)ccc4ccccc34)ccc2-c2ccc(/N=C/c3c(O)ccc4ccccc34)cc21 [CBK261240] | 84.7
CCOC(=O)C1=NN(C)c2cnn(Cc3ccc(Cl)cc3)c(=O)c2C1C(=O)CC(C)C (stereo not drawn) [CBK021389] | 91.9
Cc1ccc(S(=O)(=O)NC[C@H]2O[C@@H](CC(=O)N3CCOCC3)[C@H](O)[C@@H]2O)cc1 [CBK288924] | 87.5
NS(=O)(=O)c1ccc(NC(=S)NCCN2CCOCC2)cc1 [CBK265818] | 107
Cn1nc(CN(Cc2ccccc2C(F)(F)F)C2CC2)[nH]c1=O [CBK306391] | 98.2
O=C(Nc1ccc(N2CCNCC2)nc1)c1ccccc1 [CBK028277T] | 114
Clc1ccc(Nc2cncc(-c3cccs3)n2)cc1 [CBK065805] | 107
COc1ccccc1OCc1ccc(C(=O)N2CCN(c3cccc(C(F)(F)F)c3)CC2)o1 [CBK074417] | 62.7
CNC(=O)c1ccc(-c2ccccc2OC)nc1N1CCOCC1 [CBK106210] | 87.4
Cc1[nH]c2ccc(F)cc2c1-c1cn2c3c(nnc2n1)CCCC3 [CBK283172] | 92.3
Cn1c(=O)n(CC(=O)NCc2ccc(F)cc2)c2cccnc21 [CBK283908] | 86.6
CC1CCN(Cc2ccc(-c3nnn(CC(=O)NCc4ccc(Cl)cc4Cl)n3)cc2)CC1 [CBK144180C] | 96.5

SMILES | viability at 28.5 h, 10 µM [%]
COc1ccc(S(=O)(=O)N(CC(=O)N2CCc3ccccc3C2)C2CCCCC2)cc1Cl [CBK268525] | 97.9
CN(C)CCCn1cnc2c1c(=O)[nH]c(=O)n2Cc1ccccc1 [CBK291234] | 95.3
c1cnc2c(-c3cn4ccnc4c(NC4CC4)n3)cccc2c1 [CBK037911] | 111
Oc1cc(CCc2ccc(F)cc2)nc2ccnn12 [CBK281876] | 88.9
Cc1c(C(=O)N2CCCC(c3nc(C)n4ccsc34)C2)cnn1C (stereo not drawn) [CBK284593] | 102
CCCCOc1ccc(C(=O)N/C(=C/c2ccco2)C(=O)Nc2cccc(C(=O)O)c2)cc1 [CBK300491] | 92.4
Cc1cc(C(C)(C)C)cc(C)c1S(=O)(=O)NCCSCCN [CBK013357] | 97.8
Cn1c(CN2CCN(S(=O)(=O)c3ccccc3)CC2)nc2cc([N+](=O)[O-])ccc21 [CBK268321] | 102
COc1cccc(NC(=O)c2ccc(N(C)Cc3ccccc3)c([N+](=O)[O-])c2)c1 [CBK267827] | 95.1
O=C(O)CCC(=O)Nc1ccccc1C(=O)Nc1ccccc1 [CBK058571] | 92.4
COc1ccccc1NC(=O)N1CCC2(CC1)NC(=O)Cc1cc3ccccc3cc12 [CBK047284] | 92.1
CCOc1cc(NC2CCN(C(=O)C3(CC(C)C)CCC3)CC2)ncn1 [CBK304136] | 105
CCN1CCN(C(=O)C2CCCCC2C(=O)O)CC1 (stereo not drawn) [CBK270337] | 111
CC(OC(=O)C1CCCCC1)c1nc2ccccc2[nH]1 (stereo not drawn) [CBK111483] | 107
COc1c(C)cc(-c2nc(C)nc(C)c2C)cc1C [CBK307506] | 96.7
CCOC(=O)c1c(NC(=O)c2nn3c(C(F)(F)F)cc(-c4cccs4)nc3c2Cl)sc2c1CCCC2 [CBK262539] | 95.1
CCN1CCN(C(=O)CN(CC)S(=O)(=O)c2ccc3ccccc3c2)CC1 [CBK267913] | 101
COc1cccc(Nc2cc(-c3ccc(CC(C)C)cc3)ncn2)c1 [CBK090745] | 110
COc1ccccc1CC(=O)Nc1ccc(OCC(=O)O)cc1 [CBK264194] | 99.1
CCn1c(C)nc2cc(NC(=O)c3oc(C)nc3C)ccc21 [CBK281881] | 106
O=C(CSc1nnc(-c2cccnc2)s1)Nc1ccc([N+](=O)[O-])cc1 [CBK268777] | 112
O=C(CSC1=NCCS1)Nc1ccc(Cl)cn1 [CBK057917] | 84

SMILES | viability at 28.5 h, 10 µM [%]
COc1nccnc1OC1CCN(CCOc2ccccc2)CC1 [CBK084260] | 94.4
OCCN1CC2(CCN(Cc3cccc(Oc4ccccc4)c3)CC2)c2ccccc21 [CBK131528] | 88.7
O=c1cc(CN2CCC(Cc3ccccc3)CC2)[nH]c(=O)[nH]1 [CBK126388] | 104
CC(=O)N1CCN(CCCC(c2ccc(F)cc2)c2ccc(F)cc2)CC1 [CBK024944C] | 101
O=C(NC1CCCC1)c1ccc(-c2cnc3[nH]c(=O)n(Cc4ccc(Cl)cc4)c3n2)cc1 [CBK065039] | 94.7
O=C1c2ccccc2C(=O)N1CN(Cc1ccc2c(c1)OCO2)CN1C(=O)c2ccccc2C1=O [CBK265197] | 107
Cc1n[nH]c(O)c1C(c1ccc(OC(=O)c2ccccc2)cc1)c1c(C)n[nH]c1O [CBK265019] | 109
Cc1cc(Br)cc(C)c1OCC(=O)NNC(=O)Cc1cccc2ccccc12 [CBK267151] | 95.2
COc1ccc(/C=C(\C)C(=O)NCc2ccc(OC3CCNCC3)cc2)cc1OC [CBK038914T] | 90.9
COc1ccc([C@]23CN(C)C[C@H]2CCN(C(=O)c2cccc(Br)c2)C3)cc1OC [CBK075111T] | 96.7
CN1CCN(c2nccnc2-c2ccccc2)CC1 [CBK088825] | 88.7
N#CCSc1nc(-c2cccnc2)ccc1C(=O)O [CBK269387] | 106
Cc1cc(C(=O)N(CCC#N)Cc2cccs2)no1 [CBK057316] | 112
COc1ccc(-n2cc(-c3ccccn3)nn2)cc1OC [CBK113133] | 103
COc1ccc(C(=O)Nc2c(C)nn(-c3ccccc3)c2C)cc1S(=O)(=O)NC1CC1 [CBK297906] | 85.7
Cc1cccc(CN2CCC(NC(=O)Cn3cc(Br)ccc3=O)CC2)c1 [CBK305669] | 80
CCC(C(=O)O)N1C(=O)C(=Cc2ccc(-c3ccccc3C(F)(F)F)o2)SC1=S (stereo not drawn) [CBK296985] | 99.4
CC(=O)Nc1ccc(NCc2nc(CC(C)C)no2)c(C(F)(F)F)c1 [CBK305799] | 110
CC(=O)N(C)[C@H]1CC[C@]2(CC1)CNC(=O)c1ccccc1O2 [CBK281682] | 101
CCn1c(S)nnc1CNC(=O)c1ccc(Cl)cc1Cl [CBK267152] | 94.3
Cc1c(CC(=O)O)c2c(n1Cc1ccc(F)cc1)CCCC2=O [CBK287078] | 103
